Where two headings read alike, the source gives them in different places.
Assays:
Type in all cases: biochemical
CLK1 = molecular target: T1, CLK1 (Homo sapiens, UniProt P49759); assay: Radiometric protein kinase assay (33PanQinase Activity Assay), CLK1
T1 construct: GST-fusion or His-tag (not specified per kinase); purchased ProQinase GmbH; host or cells: Sf9 insect cells or E. coli (not specified per kinase)
Procedure, shortened: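 33P incorporation counted by microplate scintillation after H3PO4 stop and NaCl washes; IC50 fitted from dose-response curves. Reactions of kinase/substrate, [γ-33P]-ATP and compound ran 60 min at 30 °C, 1% DMSO final, 10 concentrations (10 μM–30 nM).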

DYRK1B = molecular target: T2, DYRK1B (Homo sapiens, UniProt Q9Y463); assay: Radiometric protein kinase assay (33PanQinase Activity Assay), DYRK1B; conditions: read-out: IC50 on DYRK1B (most potent DYRK1B inhibitors)
T2 construct: GST-fusion or His-tag (not specified per kinase); purchased ProQinase GmbH; host or cells: Sf9 insect cells or E. coli (not specified per kinase)
Procedure: (§1) Assays were performed by ProQinase GmbH (Engesserstr. 4, D-79108 Freiburg, Germany. www.proqinase.com). The IC50 profile of all compounds was determined using 12 protein kinases (CDK2/cyclin E, CK1ε, CLK1, 2, 3, 4, DYRK1A, 1B, 2, 3, 4, GSK3β).
(§2) The compounds were provided as […] in 100% DMSO. Prior to testing, the 1 μM stock solutions were subjected to a serial, semi-logarithmic dilution using 100% DMSO as a solvent. […] In the process, 90 μl H2O were added to each well of each compound dilution plate. To minimize potential precipitation, the H2O was added to each plate only a few minutes before the transfer of the compound solutions into the assay plates. The plate was shaken thoroughly, resulting in a compound dilution plate/10% DMSO.
(§3) For the assays (see below), 5 μL solution from each well of the compound dilution plates/10% DMSO were transferred into the assay plates. The final volume of the assay was 50 μL. All compounds were tested at 10 final assay concentrations in the range from 10 μM to 30 nM. The final DMSO concentration in the reaction cocktails was 1% in all cases.
(§4) All protein kinases provided by ProQinase were expressed in Sf9 insect cells or in E. coli as recombinant GST-fusion proteins or His-tagged proteins, either as full-length or enzymatically active fragments. All kinases were produced from human cDNAs and purified by either GSH-affinity chromatography or immobilized metal. Affinity tags were removed from a number of kinases during purification. The purity of the protein kinases was examined by SDS-PAGE/Coomassie staining, the identity was checked by mass spectroscopy.
(§5) A radiometric protein kinase assay (33PanQinase® Activity Assay) was used for measuring the kinase activity of the 12 protein kinases. All kinase assays were performed in 96-well FlashPlates™ from PerkinElmer (Boston, MA, USA) in a 50 μL reaction volume. The reaction cocktail was pipetted in four steps in the following order: • 25 μL of assay buffer (standard buffer/[γ-^33P]-ATP), • 10 μL of ATP solution (in H2O), • 5 μL of test compound (in 10% DMSO), • 10 μL of enzyme/substrate mixture.
(§6) The reaction cocktails were incubated at 30° C. for 60 minutes. The reaction was stopped with 50 μL of 2% (v/v) H3PO4, plates were aspirated and washed two times with 200 μL 0.9% (w/v) NaCl. Incorporation of ^33Pi was determined with a microplate scintillation counter (Microbeta, Wallac). The IC50 values for all compounds were calculated from the dose response curves
(§7) As a parameter for assay quality, the Z′-factor (Zhang et al., J. Biomol. Screen. 2: 67-73, 1999) for the low and high controls of each assay plate (n=8) was used. ProQinase's criterion for repetition of an assay plate is a Z′-factor below 0.4 (Iversen et al., J. Biomol. Screen. 3: 247-252, 2006).

CLK4 = molecular target: T3, CLK4 (Homo sapiens, UniProt Q9HAZ1); assay: Radiometric protein kinase assay (33PanQinase Activity Assay), CLK4; conditions: read-out: IC50 on CLK4 (most potent CLK4 inhibitors)
T3 construct: GST-fusion or His-tag (not specified per kinase); purchased ProQinase GmbH; host or cells: Sf9 insect cells or E. coli (not specified per kinase)
Procedure: as §1, §2, §3, §4, §5, §6, §7

DYRK1A = molecular target: T4, DYRK1A (Homo sapiens, UniProt Q13627); assay: Radiometric protein kinase assay (33PanQinase Activity Assay), DYRK1A; conditions: for Selectivity Class DYRK1A vs. CLK1: ratio of IC50 on CLK1 over IC50 on DYRK1A; for Selectivity Class DYRK1A vs. DYRK1B: ratio of IC50 on DYRK1B over IC50 on DYRK1A
T4 construct: GST-fusion or His-tag (not specified per kinase); purchased ProQinase GmbH; host or cells: Sf9 insect cells or E. coli (not specified per kinase)
Procedure, shortened: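 Recombinant human kinase, expressed in Sf9 or E. coli, in a radiometric [γ-33P]-ATP assay at 30 °C for 60 min. Compounds tested at 10 concentrations from 10 μM to 30 nM, 1% DMSO final. 33Pi incorporation measured by scintillation counting; IC50 from dose-response curves.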

DYRK2 = molecular target: T5, DYRK2 (Homo sapiens, UniProt Q92630); assay: Radiometric protein kinase assay (33PanQinase Activity Assay), DYRK2; conditions: read-out: IC50 on DYRK2 (most potent DYRK2 inhibitors)
T5 construct: GST-fusion or His-tag (not specified per kinase); purchased ProQinase GmbH; host or cells: Sf9 insect cells or E. coli (not specified per kinase)
T5 sequence (Q92630 1-601): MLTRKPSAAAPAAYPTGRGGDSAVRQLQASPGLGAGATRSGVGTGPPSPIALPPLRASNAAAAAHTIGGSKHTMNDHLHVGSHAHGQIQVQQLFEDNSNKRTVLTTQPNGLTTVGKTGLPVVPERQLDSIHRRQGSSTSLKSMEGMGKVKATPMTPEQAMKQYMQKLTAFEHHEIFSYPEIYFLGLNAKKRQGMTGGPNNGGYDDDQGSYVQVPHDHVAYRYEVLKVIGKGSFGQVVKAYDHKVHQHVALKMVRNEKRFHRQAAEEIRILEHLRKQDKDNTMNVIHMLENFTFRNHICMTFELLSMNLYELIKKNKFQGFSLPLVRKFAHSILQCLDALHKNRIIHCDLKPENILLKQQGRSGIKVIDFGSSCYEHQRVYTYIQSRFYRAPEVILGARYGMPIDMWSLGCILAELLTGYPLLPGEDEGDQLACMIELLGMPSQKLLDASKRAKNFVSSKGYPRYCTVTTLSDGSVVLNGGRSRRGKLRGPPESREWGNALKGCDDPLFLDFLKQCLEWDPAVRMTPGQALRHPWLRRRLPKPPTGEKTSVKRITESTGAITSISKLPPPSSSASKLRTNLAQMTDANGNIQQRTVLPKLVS
Procedure: as §1, §2, §3, §4, §5, §6, §7

CLK2 = molecular target: T6, CLK2 (Homo sapiens, UniProt P49760); assay: Radiometric protein kinase assay (33PanQinase Activity Assay), CLK2; conditions: read-out: IC50 on CLK2 (most potent CLK2 inhibitors)
T6 construct: GST-fusion or His-tag (not specified per kinase); purchased ProQinase GmbH; host or cells: Sf9 insect cells or E. coli (not specified per kinase)
Procedure: as §1, §2, §3, §4, §5, §6, §7

DYRK3 = molecular target: T7, DYRK3 (Homo sapiens, UniProt O43781); assay: Radiometric protein kinase assay (33PanQinase Activity Assay), DYRK3; conditions: read-out: IC50 on DYRK3 (most potent DYRK3 inhibitors)
T7 construct: GST-fusion or His-tag (not specified per kinase); purchased ProQinase GmbH; host or cells: Sf9 insect cells or E. coli (not specified per kinase)
T7 sequence (O43781 1-588): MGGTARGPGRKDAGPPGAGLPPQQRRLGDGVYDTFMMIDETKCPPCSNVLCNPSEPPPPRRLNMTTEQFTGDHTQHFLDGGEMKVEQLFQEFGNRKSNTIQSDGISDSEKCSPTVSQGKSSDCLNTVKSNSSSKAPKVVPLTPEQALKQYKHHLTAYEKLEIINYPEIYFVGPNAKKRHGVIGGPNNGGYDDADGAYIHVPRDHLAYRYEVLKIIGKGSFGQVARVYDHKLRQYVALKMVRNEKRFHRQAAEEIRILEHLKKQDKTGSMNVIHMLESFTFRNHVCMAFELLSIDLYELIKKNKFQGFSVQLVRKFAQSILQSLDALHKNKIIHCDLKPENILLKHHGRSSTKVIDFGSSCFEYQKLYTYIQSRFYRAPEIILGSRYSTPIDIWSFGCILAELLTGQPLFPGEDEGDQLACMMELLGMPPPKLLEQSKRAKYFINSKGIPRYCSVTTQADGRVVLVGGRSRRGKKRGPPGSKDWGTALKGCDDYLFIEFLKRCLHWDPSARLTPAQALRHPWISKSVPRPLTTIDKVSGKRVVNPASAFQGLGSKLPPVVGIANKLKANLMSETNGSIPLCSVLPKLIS
Procedure: as §1, §2, §3, §4, §5, §6, §7

[1] = IC50 class A to E, read-out: Potency Class CLK1
[2] = class by IC50 on CLK1, from dose-response curves, read-out: Potency Class CLK1
[3] = IC50 class A to E, read-out: Potency Class DYRK1A
[4] = class by IC50 on DYRK1A, from dose-response curves, read-out: Potency Class DYRK1A
[5] = read-out: IC50 on DYRK1A (most potent DYRK1A inhibitors)

T2 sequence (Q9Y463 whole entry, the tested form may be a part): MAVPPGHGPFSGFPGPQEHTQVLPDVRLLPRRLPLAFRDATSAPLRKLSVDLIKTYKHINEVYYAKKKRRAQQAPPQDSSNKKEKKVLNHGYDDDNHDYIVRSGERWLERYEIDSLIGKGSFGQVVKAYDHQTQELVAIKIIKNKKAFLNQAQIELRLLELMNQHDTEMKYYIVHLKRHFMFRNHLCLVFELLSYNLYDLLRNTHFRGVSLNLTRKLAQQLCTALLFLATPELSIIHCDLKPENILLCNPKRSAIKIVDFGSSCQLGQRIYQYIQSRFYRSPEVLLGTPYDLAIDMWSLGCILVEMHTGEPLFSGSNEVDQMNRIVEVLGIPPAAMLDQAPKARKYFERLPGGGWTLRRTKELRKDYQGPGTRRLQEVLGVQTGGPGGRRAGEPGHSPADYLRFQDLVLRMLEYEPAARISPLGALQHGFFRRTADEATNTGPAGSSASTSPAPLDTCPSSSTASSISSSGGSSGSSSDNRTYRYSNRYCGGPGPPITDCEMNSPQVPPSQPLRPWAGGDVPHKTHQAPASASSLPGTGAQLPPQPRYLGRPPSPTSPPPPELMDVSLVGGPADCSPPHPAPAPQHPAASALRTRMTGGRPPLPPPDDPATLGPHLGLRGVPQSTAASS
T3 sequence (Q9HAZ1 whole entry, the tested form may be a part): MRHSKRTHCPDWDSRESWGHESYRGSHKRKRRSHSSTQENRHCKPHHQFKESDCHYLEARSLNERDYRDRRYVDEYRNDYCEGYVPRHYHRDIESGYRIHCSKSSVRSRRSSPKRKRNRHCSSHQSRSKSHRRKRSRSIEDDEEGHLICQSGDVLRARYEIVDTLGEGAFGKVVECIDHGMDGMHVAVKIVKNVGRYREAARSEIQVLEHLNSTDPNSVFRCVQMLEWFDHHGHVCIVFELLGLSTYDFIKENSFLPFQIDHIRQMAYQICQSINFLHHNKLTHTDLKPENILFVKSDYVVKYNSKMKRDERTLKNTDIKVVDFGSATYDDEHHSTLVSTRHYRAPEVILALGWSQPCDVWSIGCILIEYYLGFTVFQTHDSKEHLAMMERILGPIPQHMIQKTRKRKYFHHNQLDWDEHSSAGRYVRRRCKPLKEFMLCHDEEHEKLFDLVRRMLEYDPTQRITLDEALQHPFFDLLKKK
T1 sequence (P49759 whole entry, the tested form may be a part): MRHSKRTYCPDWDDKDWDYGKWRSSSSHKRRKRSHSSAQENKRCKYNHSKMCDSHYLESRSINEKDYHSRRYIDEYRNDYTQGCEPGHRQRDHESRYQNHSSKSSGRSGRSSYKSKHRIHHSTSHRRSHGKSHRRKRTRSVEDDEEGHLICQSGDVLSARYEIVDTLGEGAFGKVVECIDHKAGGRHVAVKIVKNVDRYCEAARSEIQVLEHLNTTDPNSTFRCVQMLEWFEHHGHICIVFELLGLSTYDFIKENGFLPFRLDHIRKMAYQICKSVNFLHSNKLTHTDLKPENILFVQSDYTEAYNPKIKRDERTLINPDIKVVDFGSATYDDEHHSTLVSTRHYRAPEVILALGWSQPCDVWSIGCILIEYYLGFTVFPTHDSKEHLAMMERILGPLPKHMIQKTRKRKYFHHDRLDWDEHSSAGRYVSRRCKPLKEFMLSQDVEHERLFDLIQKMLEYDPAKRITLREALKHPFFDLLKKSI
T6 sequence (P49760 whole entry, the tested form may be a part): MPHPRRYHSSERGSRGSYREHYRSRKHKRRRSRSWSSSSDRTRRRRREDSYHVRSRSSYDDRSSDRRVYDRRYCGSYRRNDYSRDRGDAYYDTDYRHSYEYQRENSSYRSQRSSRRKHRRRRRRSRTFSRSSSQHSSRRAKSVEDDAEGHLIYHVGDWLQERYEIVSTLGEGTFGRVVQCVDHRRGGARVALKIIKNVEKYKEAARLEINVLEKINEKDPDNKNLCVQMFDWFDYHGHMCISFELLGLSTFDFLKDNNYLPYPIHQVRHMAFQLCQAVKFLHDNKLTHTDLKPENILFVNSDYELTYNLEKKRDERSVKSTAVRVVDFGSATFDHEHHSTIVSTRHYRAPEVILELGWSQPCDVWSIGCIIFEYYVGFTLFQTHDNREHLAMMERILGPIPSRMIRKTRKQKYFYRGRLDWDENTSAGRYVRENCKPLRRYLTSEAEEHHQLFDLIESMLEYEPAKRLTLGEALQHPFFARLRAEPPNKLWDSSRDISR

| IC50 (CLK1; [1]) | IC50 (CLK1; [2]) | IC50 (DYRK1B) | IC50 (CLK4) | IC50 (DYRK1A; [3]) | IC50 (DYRK1A; [4]) | Selectivity Class DYRK1A vs. CLK1 (DYRK1A) | Selectivity Class DYRK1A vs. DYRK1B (DYRK1A) | IC50 (DYRK1A; [5]) | IC50 (DYRK2) | IC50 (CLK2) | IC50 (CLK1; read-out: IC50 on CLK1 (most potent CLK1 inhibitors)) | IC50 (DYRK3) | Structure (SMILES) |
| --- | --- | --- | --- | --- | --- | --- | --- | --- | --- | --- | --- | --- | --- |
| 10 to 25 nM | 10 to 25 nM | ≤ 10 nM | ≤ 10 nM | ≤ 5 nM | < 5 nM | II (ratio between 2 and 10 fold) | II (ratio between 2 and 10 fold) | ≤ 10 nM |  |  |  |  | O=C1NC(NC23CC4CC(CC(O)(C4)C2)C3)=N/C1=C\c1ccc2nccnc2c1 [Compound 18, (4Z)-2-[(3-hydroxy-1-adamantyl)amino]-4-(quinoxalin-6-ylmethylene)-1H-imidazol-5-one] |
| 10 to 25 nM | 10 to 25 nM | ≤ 10 nM | ≤ 10 nM | ≤ 5 nM | < 5 nM | II (ratio between 2 and 10 fold) | II (ratio between 2 and 10 fold) | ≤ 10 nM | ≤ 250 nM | ≤ 100 nM |  |  | COC12CC3CC(CC(NC4=N/C(=C\c5ccc6nccnc6c5)C(=O)N4)(C3)C1)C2 [Compound 19, (4Z)-2-[(3-methoxy-1-adamantyl)amino]-4-(quinoxalin-6-ylmethylene)-1H-imidazol-5-one] |
| 10 to 25 nM | 10 to 25 nM | ≤ 10 nM | ≤ 10 nM | ≤ 5 nM | < 5 nM | II (ratio between 2 and 10 fold) | III (ratio between 0.5 and 2 fold) | ≤ 10 nM | ≤ 250 nM | ≤ 100 nM | ≤ 10 nM | ≤ 250 nM | O=C1NC(NC23CC4CC(CC(F)(C4)C2)C3)=N/C1=C\c1ccc2nccnc2c1 [Compound 20, (4Z)-2-[(3-fluoro-1-adamantyl)amino]-4-(quinoxalin-6-ylmethylene)-1H-imidazol-5-one] |
| 10 to 25 nM | 10 to 25 nM |  | ≤ 10 nM | 5 to 10 nM | 5 to 10 nM | II (ratio between 2 and 10 fold) | II (ratio between 2 and 10 fold) | ≤ 10 nM | ≤ 250 nM |  |  | ≤ 250 nM | O=C1NC(NC23CC4CC(CC2C4)C3)=N/C1=C\c1ccc2ncccc2c1 [Compound 48, (4Z)-2-(3-noradamantylamino)-4-(6-quinolylmethylene)-1H-imidazol-5-one] |
